Measured values reported in PMC6297231 (Nature Communications, 2018).

Experiments:
[1] = Plasma protein binding in fetal calf serum; type: in vitro ADME; details: bovine, read-out: plasma protein binding, free
[2] = system: NCI-H23 cells depleted of Bak; experiment: Caspase-3/7 activation after Bak siRNA; type: cell-based; details: Bak siRNA 72 h, then 6 h treatment
Procedure: NCI-H23 cells were trypsinized and resuspended in growth medium. SiRNA targeting Bak (cat#S1881, ThermoFisher Scientific) or non-targeting siRNA (cat#4390847, ThermoFisher Scientific), and Lipofectamine RNAiMAX (ThermoFisher Scientific) were mixed in OPTIMEM and incubated at room temperature for 20 min. Next, cell suspension was added to each siRNA master mix, dispensed into each well of a 96-well plate and incubated for 72 h.

Karpas620 = experiment: Cell viability assay; type: cell-based; details: Karpas-620, 24 h; Karpas620 (MM); read-out: AZD5991 24h GI50
Procedure: (§1) Cells were plated at 3000 cells/well in 384-well white plates in corresponding cell growth media. […] Caspase-3/7 activation was subsequently determined using a Caspase-Glo 3/7 Reagent (Promega) and viability was assayed using the CellTiter-Glo Reagent (Promega) as described in manufacturer’s instructions. Dose–response curves for caspase-3/7 activation and viability were plotted and analyzed (including EC50 and GI50 determination) using GraphPad Prism.

MUTZ3 = experiment: Cell viability assay; type: cell-based; details: 24 h; MUTZ3 (AML); read-out: AZD5991 24h GI50
Procedure: as §1

ML2 = experiment: Cell viability assay; type: cell-based; details: Homo sapiens, ML-2, 24 h; ML2 (AML); read-out: AZD5991 24h GI50
Procedure: as §1

MONOMAC6 = experiment: Cell viability assay; type: cell-based; details: Homo sapiens, MONO-MAC-6, 24 h; MONOMAC6 (AML); read-out: AZD5991 24h GI50
Procedure: as §1

GRANTA519 = experiment: Cell viability assay; type: cell-based; details: Homo sapiens, Granta-519, 24 h; GRANTA519 (NHL); read-out: AZD5991 24h GI50
Procedure: as §1

JEKO1 = experiment: Cell viability assay; type: cell-based; details: Homo sapiens, JeKo-1, 24 h; JEKO1 (NHL); read-out: AZD5991 24h GI50
Procedure: as §1

Karpas422 = experiment: Cell viability assay; type: cell-based; details: Homo sapiens, KARPAS-422, 24 h; Karpas422 (NHL); read-out: AZD5991 24h GI50
Procedure: as §1

RI1 = experiment: Cell viability assay; type: cell-based; details: Ri-1, 24 h; RI1 (NHL); read-out: AZD5991 24h GI50
Procedure: as §1

Sudhl4 = experiment: Cell viability assay; type: cell-based; details: Homo sapiens, SU-DHL-4, 24 h; Sudhl4 (NHL); read-out: AZD5991 24h GI50
Procedure: as §1

Toledo = experiment: Cell viability assay; type: cell-based; details: Homo sapiens, 24 h; Toledo (NHL); read-out: AZD5991 24h GI50
Procedure: as §1

U2932 = experiment: Cell viability assay; type: cell-based; details: Homo sapiens, 24 h; U2932 (NHL); read-out: AZD5991 24h GI50
Procedure: as §1

WSUDLCL2 = experiment: Cell viability assay; type: cell-based; details: Homo sapiens, 24 h; WSUDLCL2 (NHL); read-out: AZD5991 24h GI50
Procedure: as §1

Calu1 = experiment: Cell viability assay; type: cell-based; details: Homo sapiens, Calu-1, 24 h; Calu1 (Lung); read-out: AZD5991 24h GI50
Procedure: as §1

H1734 = experiment: Cell viability assay; type: cell-based; details: Homo sapiens, NCI-H1734, 24 h; H1734 (Lung); read-out: AZD5991 24h GI50
Procedure: as §1

H196 = experiment: Cell viability assay; type: cell-based; details: NCI-H196, 24 h; H196 (Lung); read-out: AZD5991 24h GI50
Procedure: as §1

H2122 = experiment: Cell viability assay; type: cell-based; details: Homo sapiens, NCI-H2122, 24 h; H2122 (Lung); read-out: AZD5991 24h GI50
Procedure: as §1

H2126 = experiment: Cell viability assay; type: cell-based; details: Homo sapiens, NCI-H2126, 24 h; H2126 (Lung); read-out: AZD5991 24h GI50
Procedure: as §1

H23 = experiment: Cell viability assay; type: cell-based; details: Homo sapiens, NCI-H23, 24 h; H23 (Lung); read-out: AZD5991 24h GI50
Procedure: as §1

H647 = experiment: Cell viability assay; type: cell-based; details: Homo sapiens, NCI-H647, 24 h; H647 (Lung); read-out: AZD5991 24h GI50
Procedure: as §1

SKLU1 = experiment: Cell viability assay; type: cell-based; details: Homo sapiens, SK-LU-1, 24 h; SKLU1 (Lung); read-out: AZD5991 24h GI50
Procedure: as §1

HCC1187 = experiment: Cell viability assay; type: cell-based; details: Homo sapiens, 24 h; HCC1187 (Breast); read-out: AZD5991 24h GI50
Procedure: as §1

HCC1954 = experiment: Cell viability assay; type: cell-based; details: Homo sapiens, 24 h; HCC1954 (Breast); read-out: AZD5991 24h GI50
Procedure: as §1

MCF7 = experiment: Cell viability assay; type: cell-based; details: Homo sapiens, 24 h; MCF7 (Breast); read-out: AZD5991 24h GI50
Procedure: as §1

SKBR3 = experiment: Cell viability assay; type: cell-based; details: Homo sapiens, SK-BR-3, 24 h; SKBR3 (Breast); read-out: AZD5991 24h GI50
Procedure: as §1

A2058 = experiment: Cell viability assay; type: cell-based; details: Homo sapiens, 24 h; A2058 (Skin); read-out: AZD5991 24h GI50
Procedure: as §1

MEWO = experiment: Cell viability assay; type: cell-based; details: Homo sapiens, 24 h; MEWO (Skin); read-out: AZD5991 24h GI50
Procedure: as §1

WM2664 = experiment: Cell viability assay; type: cell-based; details: Homo sapiens, WM 266-4, 24 h; WM2664 (Skin); read-out: AZD5991 24h GI50
Procedure: as §1

Colo205 = experiment: Cell viability assay; type: cell-based; details: Homo sapiens, COLO 205, 24 h; Colo205 (GI); read-out: AZD5991 24h GI50
Procedure: as §1

Cc1c2c(nn1C)CSCc1cc(n(C)n1)CSc1cc(c3ccccc3c1)OCCCc1c(C(=O)O)n(C)c3c-2c(Cl)ccc13 (atropisomer, axis not shown; (Ra)) [(Ra)-7]
fraction unbound [1]: 0.001 | caspase-3/7 activation and cell death [2]: confers resistance | GI50 (Karpas620): 87 nM | GI50 (MUTZ3): 4 nM | GI50 (ML2): 69 nM | GI50 (MONOMAC6): 226 nM | GI50 (GRANTA519): 19300 nM | GI50 (JEKO1): 452 nM | GI50 (Karpas422): 490 nM | GI50 (RI1): 28200 nM | GI50 (Sudhl4): 127 nM | GI50 (Toledo): 113 nM | GI50 (U2932): 15500 nM | GI50 (WSUDLCL2): 109 nM | GI50 (Calu1): > 30000 nM | GI50 (H1734): 13800 nM | GI50 (H196): > 30000 nM | GI50 (H2122): 18700 nM | GI50 (H2126): 320 nM | GI50 (H23): 122 nM | GI50 (H647): > 30000 nM | GI50 (SKLU1): 29900 nM | GI50 (HCC1187): 233 nM | GI50 (HCC1954): 756 nM | GI50 (MCF7): 1350 nM | GI50 (SKBR3): 118 nM | GI50 (A2058): 765 nM | GI50 (MEWO): 7680 nM | GI50 (WM2664): 13200 nM | GI50 (Colo205): 20500 nM
